Source: patent US20230302131A1, “MPC INHIBITION FOR PRODUCING T-CELLS WITH A MEMORY PHENOTYPE” (UNIVERSITÉ DE LAUSANNE, priority 2020, published 2023)
Entries after “also recorded” stand apart in the source; their conditions may differ.

How the values were obtained:
OT1 splenocytes = assay: Metabolomics, acetyl-CoA and 13C tracing by mass spectrometry; assay type: cell-based, mouse
From the text: (§1) Mechanistically, it was hypothesized by the inventors that epigenetic processes might underlie the observed long-term memory phenotype and anti-tumor activity upon metabolic intervention with MPCi. […] Since acetyl-CoA is the acetyl donor for the acetylation of proteins, amongst which also histones, histone post-translational modifications were examined that are known to make chromatin accessible to transcription factors, a characteristic of memory T cells. […] These are marks known to open chromatin and make it accessible for transcription factor docking. […] Amongst those were Sell, Tcf7 and Ccr7, thereby correlating accessible chromatin with increased mRNA copies (FIG. 3E and see above).
OT1 splenocytes were activated and cultured as described above. After 66 hours, the cells were collected and the medium was replaced with glucose- and glutamine-free RPMI, supplemented with 10% dialyzed FBS, 1% P/S, 10 mM HEPES, 50 μM β-mercaptoethanol and either 11 mM normal glucose or 11 mM U-^13C6-glucose (Cambridge Isotopes) with respectively 4 mM ^13C5-glutamine (Cambridge Isotopes or 4 mM normal L-glutamine. After 6 hours labelling at 37° C., cells were collected and lysed in Methanol. Next Chloroform was added, and after centrifugation, the fraction containing the polar metabolites was collected and dried on a SpeedVac. Samples were then resuspended and loaded on a mass spectrometer. The spectra of AcetylCoA were analyzed with the M+0 representing the unlabeled fraction, and the M+2 representing the Acetyl group derived from the ^13C-labelled substrate (glucose or glutamine).

OT1 CD8 T cells = assay: ATAC sequencing of OT1 CD8 T cells; assay type: cell-based, mouse; conditions: ATAC-seq after 3 days of culture; vs DMSO
From the text: as §1
After 3 days of OT1 CD8 T cell culture, 5×10^4 cells were collected and transposed as described before (Buenrostro et al, Transposition of native chromatin for multimodal regulatory analysis and personal epigenomics. Nat Methods. 2013 December; 10(12): 1213-1218.). Amplified transposed fragments were sequenced on an Illumina HiSeq platform.
Computations of the analysis were performed at the Vital-IT Center for high-performance computing of the SIB Swiss Institute of Bioinformatics. Sequencing reads contained in fastq files were aligned to the Mouse mm10 reference genome using Bowtie2 v.2.3.4.1, and alignment files were manipulated with samtools v.1.8. Peak calling was performed with Macs2 v.2.1.1. […]

adult human CD8 T cells = assay: Adult human PBMC activation with anti-CD3/CD28 beads, T cell phenotype by flow cytometry; assay type: cell-based; conditions: adult PBMCs, day 9, vs DMSO
Procedure: FIG. 7: MPC inhibition during the activation and culture of adult human T cells induces a memory phenotype. (A) Experimental design. PBMCs were isolated from adult healthy volunteers and activated with anti-CD3/CD28 beads in the presence of DMSO or UK5099 (25 μM). Beads were removed at day 5 and T cell phenotype was analysed at day 9. (B) Percentage of CD8 T cells expressing the memory marker CD62L. (C) The mean fluorescent intensity of CD62L in the respective positive population. (D) Percentage of CD8 T cells expressing markers that allows their identification as stem cell memory T cells (TSCM). (E-F) Mitochonrial mass (identified by MitoGreen staining, E) and mitochondrial membrane potential (TMRM, F), measured by flow cytometry and expressed as fold change as compared to DMSO. (G) Mitochondrial membrane potential normalized for the mitochondrial mass, expressed as the ratio of […], fold change as compared to DMSO. Pooled data from 2 independant experiments. ns: non-significant, *p<0.05, **[…], ***p<0.001. Data represents mean±s.e.m.
Heparinised blood was diluted with PBS and pipetted on top of Ficoll-paque (LymphoPrep). After centrifugation at 1800 rpm for 20 minutes at room temperature, the layer of cells at the intersection, containing the PBMCs was removed, washed and resuspended at 5×10^5 cells/ml of RPMI medium containing 8% human serum (AB serum), antibiotics, 2 mM L-Glutamine, 1% non-essential amino acids, 1 mM sodium pyruvate and 50 μM β-mercaptoethanol (all Gibco). Cells were activated with Human T-activator CD3/CD28 Dynabeads at a 1 bead/cell ratio with 150 IU/ml human recombinant IL2 and DMSO or 25 μM UK5099. Throughout the culture, cells were regularly split when necessary and beads were removed at day 5. At day 9, a fraction of the cells was stained with antibodies for flow cytometry analysis or for mitochondrial analysis.

B16-OVA tumor = assay: B16-OVA melanoma tumor model, adoptive cell transfer of pre-treated OT1 cells; assay type: in vivo, mouse
Procedure: To assess the functional capacity of the generated memory T cells, the MPCi-treated cells were further tested in a mouse model of melanoma. Briefly, 10^5 ovalbumin-expressing B16 melanoma cells were injected subcutaneously in 6-week-old mice. At day 6 post-engraftment, when a palpable tumor was present, mice were irradiated with 5Gy. The next day 10^5 MPCi- or DMSO-treated OT1 cells were intravenously injected, followed by a subcutaneous vaccination of 50 μg CpG and 10 μg SIINFEKL (FIG. 2A). […] Confirming the Listeria data, the proportion of central memory CD8+ T cells in the spleen was increased upon MPCi treatment (FIG. 2C).
Activated CD45.1+OT-1 splenocytes were culture in vitro for 7 days as described above, collected and purified on a Ficoll gradient, allowing to separate dead and live splenocytes. Live splenocytes were counted with Trypan blue stain 0.4%. 100′000 live splenocytes were transferred into CD45.2+ host mice by tail vein injection.
B16-OVA cells were cultured in DMEM (GIBCO) with 10% FBS and 1% P/S before their subcutaneous injection into the mouse flank. Each mouse received 100′000 cells in a volume of 200 μl of PBS. 6 days after B16-OVA cells injection, tumors were measured, mice were randomized and lymphodepleted by irradiation (5 Gray). 7 days after B16-Ova injection, mice were adoptively transferred with the ACT protocol described previously. Following the ACT, mice received a vaccination of CpG (50 μg/mouse) and N4 Ova peptide (10 μg/mouse) diluted in PBS to obtain a total volume of 100 μl/mouse, injected subcutaneously at the tail base. Tumors were measured every 2 days and the tumor volume was calculated according to the formula: V=π×[d2×D]/6, where d is the minor tumor axis and D is the major tumor axis. At day 26 days post-tumor engraftment, tumors and spleens were dissected were then stained for flow cytometry analyses.
Antibody panel for intra-tumoral T cells and splenocytic T cells was: CD8-PE-texas-Red, CD45.1-Pacific blue, CD45.2-FITC, CD62L-PE-Cy7, CD44-APC-Cy7, PD1-APC, Lag3-PE, and CD127-FITC.
Antibody panel for cytokine detection contained: CD8-PE-texas-Red, CD45.1-FITC, CD45.2-APC, TNFa-Pacific blue, IFNg-PerCP-Cy5.5, IL-2-PE.

In the case of `N#CC(=Cc1cn(-c2ccccc2)c2ccccc12)C(=O)O` [UK5099, 2-cyano-3-(1-phenyl-1H-indol-3-yl)-2-propenoic acid], the “13C-glutamine incorporation into acetyl-CoA” value (OT1 splenocytes; 6 hours labelling) is reported as “incorporated dramatically more”, the “13C-labeled glucose incorporation into acetyl-CoA” value (OT1 splenocytes; 6 hours labelling) is reported as “incorporating less” and the “total acetyl-CoA levels” value (OT1 splenocytes; mass spectrometry, vs DMSO) is reported as “strong increase”. For the same molecule, the “genes associated with more accessible chromatin” value (OT1 CD8 T cells) was 981 genes, the “population of stem cell-like memory T cells (TSCM)” value (adult human CD8 T cells; 25 μM) was “increased” and the “population of CD8 T cells positive for CD62L” value (adult human CD8 T cells; UK5099 25 μM) was “further induce”. For the same molecule, the “mean fluorescent intensity of the CD62L signal in the CD62L-positive cells” value (adult human CD8 T cells) was “increased”, the “proportion of central memory CD8+ T cells in the spleen” value (B16-OVA tumor; CD44 and CD62L double positive of transferred cells) was “increased” and the B16 tumor growth (B16-OVA tumor; mice that received 10^5 pre-treated OT1 CD8+ T cells, compared to DMSO, listed as MPCi) was “enhanced anti-tumoral activity; also recorded: strongly reduced”. The “expression of PD-1 in T cells infiltrating the tumor” value (B16-OVA tumor; transferred CD8+CD45.1+ population in the tumor, vs DMSO) was “significantly decreased”, the “cells double positive for IFNγ and TNF upon restimulation” value (B16-OVA tumor; tumor single cell suspension restimulated with SIINFEKL for 4 h) was “higher proportion” and the “percentage of transferred cells out of total CD8+ T cells in spleen and tumor” value (B16-OVA tumor; upon dissection, data not shown) was “not strikingly different”.
